In ChEMBL document CHEMBL5723035, “Affinity Biochemical Literature for EUbOPEN Chemogenomic Library” (2024):
pIC50, pKd, pKi: −log10 of the molar value. Blank lines part the entries; values can stand above or below the compound they belong to. Non-standard residues stand in square brackets, D forms with d. Residues, ends and D or L forms follow the SMILES beside them. *: point of attachment. Tyr(3-Cl) = N[C@@H](Cc1ccc(O)c(Cl)c1)C(=O)O; Benzoyl(3,5-Cl2) = O=C(c1cc(Cl)cc(Cl)c1)*; Lys(Et2) = CCN(CC)CCCC[C@H](N)C(=O)O; Gly(cPent) = N[C@H](C(=O)O)C1CCCC1; Cbz = O=C(OCc1ccccc1)*; NH(propargyl) = C#CCN*; CH2F = FC*

How the values were obtained:
Dipeptidyl peptidase 1 = Dipeptidyl peptidase 1 (Homo sapiens, UniProt P53634); assay: Affinity Biochemical interaction: (No data available) EUB0002789aCl CTSC; design: mode of action Inhibitor, recommended concentration 1 uM
Cathepsin S = Cathepsin S (Homo sapiens, UniProt P25774); assay: Affinity Biochemical interaction: (inhibition of enzyme activity in cleaving fluorogenic substrate) EUB0002791a CTSS; type: functional; design: mode of action Inhibitor, recommended concentration 1 uM
Chain of Cathepsin S (P25774 whole entry): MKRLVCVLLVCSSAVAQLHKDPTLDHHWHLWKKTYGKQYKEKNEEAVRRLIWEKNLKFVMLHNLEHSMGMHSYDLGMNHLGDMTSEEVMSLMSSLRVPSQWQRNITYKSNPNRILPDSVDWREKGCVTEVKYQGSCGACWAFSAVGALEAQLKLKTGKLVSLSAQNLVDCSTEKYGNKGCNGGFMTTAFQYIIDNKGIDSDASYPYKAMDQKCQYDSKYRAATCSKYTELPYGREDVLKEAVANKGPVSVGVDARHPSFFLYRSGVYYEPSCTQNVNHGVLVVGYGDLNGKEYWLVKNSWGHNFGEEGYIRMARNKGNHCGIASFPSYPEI

[1] = molecular target: T1, Chromobox protein homolog 2 (Homo sapiens, UniProt Q14781); assay: Affinity Biochemical interaction: (Fluorescence polarisation (fluorescein conjugated)) EUB0002728a CBX2; type: functional; design: mode of action Inhibitor, recommended concentration 1 uM
T1 sequence (Q14781 whole entry): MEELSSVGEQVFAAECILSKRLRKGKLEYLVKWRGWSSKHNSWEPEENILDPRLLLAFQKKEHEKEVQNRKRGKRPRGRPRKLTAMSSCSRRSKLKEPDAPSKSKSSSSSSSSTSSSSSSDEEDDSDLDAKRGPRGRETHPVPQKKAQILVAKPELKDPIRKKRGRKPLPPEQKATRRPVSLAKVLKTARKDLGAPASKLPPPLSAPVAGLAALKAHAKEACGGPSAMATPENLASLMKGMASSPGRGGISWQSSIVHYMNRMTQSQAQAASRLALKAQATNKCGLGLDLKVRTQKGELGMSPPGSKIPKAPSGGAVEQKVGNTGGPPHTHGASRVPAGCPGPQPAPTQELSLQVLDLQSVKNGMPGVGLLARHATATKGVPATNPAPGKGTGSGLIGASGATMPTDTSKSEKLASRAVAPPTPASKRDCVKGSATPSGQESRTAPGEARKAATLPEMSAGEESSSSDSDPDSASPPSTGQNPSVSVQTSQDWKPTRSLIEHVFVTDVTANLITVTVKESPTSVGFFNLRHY

[2] = molecular target: T1, Chromobox protein homolog 2; assay: Affinity Biochemical interaction: (thermal shift assay (non-derivatised)) EUB0002728a CBX2; design: mode of action Inhibitor, recommended concentration 1 uM
Menin = Menin (Homo sapiens, UniProt O00255); assay: Affinity Biochemical interaction: (Enzymatic assay) EUB0002767a MEN1; type: functional; design: mode of action Inhibitor, recommended concentration 1 uM
Chain of Menin (O00255 whole entry): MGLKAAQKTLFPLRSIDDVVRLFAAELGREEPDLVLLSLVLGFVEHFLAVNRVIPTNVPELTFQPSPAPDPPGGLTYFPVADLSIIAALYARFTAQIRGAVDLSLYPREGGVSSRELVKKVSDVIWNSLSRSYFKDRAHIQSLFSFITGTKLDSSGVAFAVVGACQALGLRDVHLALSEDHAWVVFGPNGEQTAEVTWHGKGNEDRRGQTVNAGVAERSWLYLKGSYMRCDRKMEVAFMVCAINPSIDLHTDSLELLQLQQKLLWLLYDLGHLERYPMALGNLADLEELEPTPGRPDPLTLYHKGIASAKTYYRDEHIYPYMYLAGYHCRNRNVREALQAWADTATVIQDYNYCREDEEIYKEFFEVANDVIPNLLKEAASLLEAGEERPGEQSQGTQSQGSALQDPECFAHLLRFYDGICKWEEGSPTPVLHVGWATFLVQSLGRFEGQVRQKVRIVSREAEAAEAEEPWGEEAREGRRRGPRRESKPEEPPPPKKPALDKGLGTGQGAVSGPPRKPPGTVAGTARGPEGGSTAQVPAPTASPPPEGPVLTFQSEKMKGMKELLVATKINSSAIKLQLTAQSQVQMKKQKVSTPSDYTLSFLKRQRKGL

[3] = molecular target: WD repeat-containing protein 5 (Homo sapiens, UniProt P61964); assay: Affinity Biochemical interaction: (Time-resolved fluorescence energy transfer (TR-FRET) assay to determine the competitive binding affinity (Ki) against the MLL1-derived FITC-peptide probe) EUB0002769a WDR5; type: functional; design: mode of action Inhibitor, recommended concentration 1 uM
[4] = molecular target: Histone-lysine N-methyltransferase 2A (Homo sapiens, UniProt Q03164); assay: Affinity Biochemical interaction: (H3K4 HMT inhibition assay to measure the effect on MLL1-mediated HMT activity) EUB0002769a MLL; type: functional; design: mode of action Inhibitor, recommended concentration 1 uM
[5] = molecular target: Ubiquitin carboxyl-terminal hydrolase 1 (Homo sapiens, UniProt O94782); assay: Affinity Biochemical interaction: (Ubiquitin-rhodamine 110 Assay for USP1 activity) EUB0002793a USP1; type: functional; design: mode of action Inhibitor, recommended concentration 1 uM
Chain of Ubiquitin carboxyl-terminal hydrolase 1 (O94782 whole entry): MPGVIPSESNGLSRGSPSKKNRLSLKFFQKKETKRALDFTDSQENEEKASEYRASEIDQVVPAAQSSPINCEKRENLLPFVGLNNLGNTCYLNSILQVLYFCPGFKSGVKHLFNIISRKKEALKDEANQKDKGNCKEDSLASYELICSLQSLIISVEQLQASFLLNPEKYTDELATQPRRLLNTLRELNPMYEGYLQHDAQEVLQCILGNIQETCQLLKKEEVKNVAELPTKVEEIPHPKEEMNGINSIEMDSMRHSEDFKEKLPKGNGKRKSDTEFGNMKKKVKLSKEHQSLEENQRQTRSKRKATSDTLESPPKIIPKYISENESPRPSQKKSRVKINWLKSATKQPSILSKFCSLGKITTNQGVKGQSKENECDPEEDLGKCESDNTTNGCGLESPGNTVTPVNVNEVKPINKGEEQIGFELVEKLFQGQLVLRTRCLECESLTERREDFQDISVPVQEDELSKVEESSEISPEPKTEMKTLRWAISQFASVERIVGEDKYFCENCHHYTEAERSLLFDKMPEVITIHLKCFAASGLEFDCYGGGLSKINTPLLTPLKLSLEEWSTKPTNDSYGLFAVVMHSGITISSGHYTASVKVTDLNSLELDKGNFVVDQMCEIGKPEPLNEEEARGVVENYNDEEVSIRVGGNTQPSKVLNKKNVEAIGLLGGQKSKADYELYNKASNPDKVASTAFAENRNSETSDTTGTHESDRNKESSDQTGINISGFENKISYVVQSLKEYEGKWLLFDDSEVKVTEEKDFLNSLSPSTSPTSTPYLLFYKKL

[6] = molecular target: Ubiquitin carboxyl-terminal hydrolase 30 (Homo sapiens, UniProt Q70CQ3)
[7] = molecular target: Ubiquitin carboxyl-terminal hydrolase 7 (Homo sapiens, UniProt Q93009); assay: Affinity Biochemical interaction: (inhibition of enzyme activity in cleaving fluorogenic ubiquitin-rhodamine substrate) EUB0002755a USP7; type: functional; design: mode of action Inhibitor, recommended concentration 1 uM
[8] = molecular target: cGMP-specific 3',5'-cyclic phosphodiesterase (Homo sapiens, UniProt O76074); assay: Affinity Biochemical interaction: (inhibition of enzyme activity in cleaving radiolabelled substrate [3H]cGMP) EUB0002742aCl PDE5A; type: functional; design: mode of action Inhibitor, recommended concentration 1 uM
Caspase-2 = Caspase-2 (Homo sapiens, UniProt P42575); assay: Affinity Biochemical interaction: (enzymatic assay (cleavage of fluorogenic substrate)) EUB0002782a CASP2; type: functional; design: mode of action Inhibitor, recommended concentration 1 uM
Chain of Caspase-2 (P42575 170-325 limits assumed): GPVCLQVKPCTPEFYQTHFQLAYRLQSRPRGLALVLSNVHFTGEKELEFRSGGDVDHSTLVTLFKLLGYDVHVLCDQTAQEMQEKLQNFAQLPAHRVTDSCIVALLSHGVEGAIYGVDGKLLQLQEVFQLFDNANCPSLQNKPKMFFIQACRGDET
Chain of Caspase-2 (P42575 334-452 limits assumed): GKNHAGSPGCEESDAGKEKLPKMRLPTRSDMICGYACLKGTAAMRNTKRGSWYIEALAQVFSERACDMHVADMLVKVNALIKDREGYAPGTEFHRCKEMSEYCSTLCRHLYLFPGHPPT

[9] = molecular target: Poly [ADP-ribose] polymerase 2 (Homo sapiens, UniProt Q9UGN5); assay: Affinity Biochemical interaction: (inhibition of enzyme activity) EUB0002763a PARP2; type: functional; design: mode of action Inhibitor, recommended concentration 1 uM
[10] = molecular target: Poly [ADP-ribose] polymerase 1 (Homo sapiens, UniProt P09874); assay: Affinity Biochemical interaction: (inhibition of enzyme activity) EUB0002763a PARP1; type: functional; design: mode of action Inhibitor, recommended concentration 1 uM
Chain of Poly [ADP-ribose] polymerase 1 (P09874 whole entry): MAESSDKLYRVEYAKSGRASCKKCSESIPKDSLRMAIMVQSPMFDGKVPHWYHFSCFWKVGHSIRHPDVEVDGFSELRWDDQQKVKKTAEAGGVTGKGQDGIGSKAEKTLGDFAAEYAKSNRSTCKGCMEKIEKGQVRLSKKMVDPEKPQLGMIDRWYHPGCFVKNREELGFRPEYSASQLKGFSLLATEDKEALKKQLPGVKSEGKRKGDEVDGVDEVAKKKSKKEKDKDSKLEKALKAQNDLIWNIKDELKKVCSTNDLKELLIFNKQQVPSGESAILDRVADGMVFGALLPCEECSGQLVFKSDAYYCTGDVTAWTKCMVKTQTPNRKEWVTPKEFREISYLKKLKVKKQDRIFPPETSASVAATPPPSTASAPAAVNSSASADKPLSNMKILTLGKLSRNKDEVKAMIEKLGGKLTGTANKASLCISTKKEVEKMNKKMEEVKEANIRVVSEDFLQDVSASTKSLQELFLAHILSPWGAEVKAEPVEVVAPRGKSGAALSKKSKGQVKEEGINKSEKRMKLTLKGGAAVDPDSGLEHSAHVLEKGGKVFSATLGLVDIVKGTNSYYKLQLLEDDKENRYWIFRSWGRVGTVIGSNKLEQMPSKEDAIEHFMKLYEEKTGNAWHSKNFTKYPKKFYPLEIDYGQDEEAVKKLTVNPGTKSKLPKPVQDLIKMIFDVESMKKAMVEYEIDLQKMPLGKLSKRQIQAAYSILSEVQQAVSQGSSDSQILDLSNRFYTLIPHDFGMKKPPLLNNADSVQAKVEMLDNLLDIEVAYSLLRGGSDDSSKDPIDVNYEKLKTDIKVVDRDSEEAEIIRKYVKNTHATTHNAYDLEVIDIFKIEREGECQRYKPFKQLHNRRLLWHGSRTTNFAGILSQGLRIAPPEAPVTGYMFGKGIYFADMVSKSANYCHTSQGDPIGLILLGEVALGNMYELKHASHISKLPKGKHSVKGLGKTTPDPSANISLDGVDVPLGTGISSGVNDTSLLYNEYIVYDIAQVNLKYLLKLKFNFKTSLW

[11] = molecular target: T2, Calpain-1 catalytic subunit (Homo sapiens, UniProt P07384); assay: Affinity Biochemical interaction: (inhibition of enzyme activity using a fluorogenic substrate) EUB0002786aAD CAPN1; type: functional; design: mode of action Inhibitor, recommended concentration 1 uM
T2 sequence (P07384 whole entry): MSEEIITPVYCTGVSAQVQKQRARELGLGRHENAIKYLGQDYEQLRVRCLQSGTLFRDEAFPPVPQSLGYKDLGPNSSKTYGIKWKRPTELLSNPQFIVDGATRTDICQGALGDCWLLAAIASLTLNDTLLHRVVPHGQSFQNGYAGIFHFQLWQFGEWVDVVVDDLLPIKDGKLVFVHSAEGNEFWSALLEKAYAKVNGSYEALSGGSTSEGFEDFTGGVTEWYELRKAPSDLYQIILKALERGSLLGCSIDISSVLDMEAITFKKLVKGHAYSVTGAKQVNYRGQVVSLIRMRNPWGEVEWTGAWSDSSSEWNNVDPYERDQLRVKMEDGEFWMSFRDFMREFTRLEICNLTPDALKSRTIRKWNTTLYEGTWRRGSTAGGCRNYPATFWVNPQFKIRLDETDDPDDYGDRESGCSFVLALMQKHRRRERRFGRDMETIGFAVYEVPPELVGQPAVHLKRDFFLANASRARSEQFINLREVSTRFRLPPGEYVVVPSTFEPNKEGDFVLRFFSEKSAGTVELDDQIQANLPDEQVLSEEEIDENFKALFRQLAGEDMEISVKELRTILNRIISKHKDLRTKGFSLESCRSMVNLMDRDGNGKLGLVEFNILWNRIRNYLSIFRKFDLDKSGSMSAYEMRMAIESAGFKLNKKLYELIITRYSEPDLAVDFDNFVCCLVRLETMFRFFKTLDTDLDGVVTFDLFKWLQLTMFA

[12] = molecular target: Calpain-2 catalytic subunit (Homo sapiens, UniProt P17655); assay: Affinity Biochemical interaction: (inhibition of casein degradation, monitored by measuring generation of trichloroacetic acid-soluble peptides) EUB0002786aAD CAPN2; type: functional; design: mode of action Inhibitor, recommended concentration 1 uM
Chain of Calpain-2 catalytic subunit (P17655 whole entry): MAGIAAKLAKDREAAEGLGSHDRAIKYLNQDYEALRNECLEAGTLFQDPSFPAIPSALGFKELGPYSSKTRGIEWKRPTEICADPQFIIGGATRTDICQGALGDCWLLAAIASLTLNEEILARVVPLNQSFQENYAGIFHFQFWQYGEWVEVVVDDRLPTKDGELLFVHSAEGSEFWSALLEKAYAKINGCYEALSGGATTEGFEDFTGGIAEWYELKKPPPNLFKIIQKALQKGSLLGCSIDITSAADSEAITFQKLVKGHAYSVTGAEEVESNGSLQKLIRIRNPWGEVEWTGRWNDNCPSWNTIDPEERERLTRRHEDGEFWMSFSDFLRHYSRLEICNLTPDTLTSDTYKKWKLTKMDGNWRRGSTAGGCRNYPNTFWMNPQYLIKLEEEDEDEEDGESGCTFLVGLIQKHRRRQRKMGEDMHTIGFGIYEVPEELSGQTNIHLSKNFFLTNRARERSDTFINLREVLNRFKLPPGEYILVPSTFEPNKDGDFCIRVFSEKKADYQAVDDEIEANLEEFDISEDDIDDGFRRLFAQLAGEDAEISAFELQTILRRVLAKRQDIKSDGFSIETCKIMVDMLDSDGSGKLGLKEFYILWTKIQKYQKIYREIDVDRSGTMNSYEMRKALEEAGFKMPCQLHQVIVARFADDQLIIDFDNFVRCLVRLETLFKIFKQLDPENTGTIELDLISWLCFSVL

[13] = molecular target: T2, Calpain-1 catalytic subunit; assay: Affinity Biochemical interaction: (inhibition of casein degradation, monitored by measuring generation of trichloroacetic acid-soluble peptides) EUB0002786aAD CAPN1; type: functional; design: mode of action Inhibitor, recommended concentration 1 uM

- pIC50 (Dipeptidyl peptidase 1): > 9.37
SMILES: CC[C@@H](/C=C/C(=O)N1CCc2ccccc21)NC(=O)C1(N)CCOCC1

- pKi (Cathepsin S): 8.68
SMILES: CC(F)(F)C(=O)N[C@@H](CC1(F)CCCC1)C(=O)NC1(C(=O)C(N)=O)CCC1

- pKd [1]: 7.10
- pKd [2]: 6.96
SMILES: C#CCNC(=O)[C@H](CO)NC(=O)[C@H](CCCCN(CC)CC)NC(=O)[C@@H](NC(=O)[C@@H](NC(=O)[C@H](Cc1ccc(O)c(Cl)c1)NC(=O)c1cc(Cl)cc(Cl)c1)C1CCCC1)[C@@H](C)CC ({Benzoyl(3,5-Cl2)}-[Tyr(3-Cl)][Gly(cPent)]I[Lys(Et2)]S-{NH(propargyl)})

- pKi (Menin): 9.98
SMILES: CC(C)N(C(=O)c1cc(F)ccc1Oc1cncnc1N1CC2(CCN(C[C@H]3CC[C@H](NS(C)(=O)=O)CC3)CC2)C1)C(C)C

- pKd [3]: > 10.70
- pIC50 [4]: 8.66
SMILES: COc1cc(O)cc(CN2CCc3c(cc(Cn4ccn(C)c4=N)cc3-c3ccc(F)cc3C)C2=O)c1

- pIC50 [5]: > 7.30
SMILES: CC(C)c1c(F)cccc1-c1ncc2[nH]c(=O)n(Cc3ccc(-c4nc(C(F)(F)F)cn4C)cc3)c2n1

SMILES: COc1ccc(-c2csc(N(C)C(=O)[C@@H]3CCCN3C#N)n2)nc1C#N
- pIC50 [6]: > 7.00

- pIC50 [7]: 7.87
SMILES: Cc1cc(Cl)cc(-c2c3sc(CN4C(=O)C5C(C4=O)C5(C)C)cc3nn2C)c1OC1CCNCC1 (configuration not stated)

- pIC50 [8]: 10.13
SMILES: CCn1c(=S)[nH]c2cc3c(NCc4ccccc4N4CCC(CO)CC4)ncnc3cc21

- pIC50 (Caspase-2): ~7.10
SMILES: COC(=O)CC(NC(=O)C(C)NC(=O)C(NC(=O)C(CC(=O)OC)NC(=O)C(NC(=O)OCc1ccccc1)C(C)C)C(C)C)C(=O)CF (configuration not stated) (Cbz-VD(OMe)VAD(OMe)-CH2F; configuration not given here)

- pIC50 [9]: 9.00
- pIC50 [10]: 8.85
SMILES: O=C(c1cc(Cc2n[nH]c(=O)c3ccccc23)ccc1F)N1CC(CNC2CC2)C1

- pKi [11]: 9.70
- pIC50 [12]: ~7.52
- pIC50 [13]: ~7.22
SMILES: CC[C@H](C)[C@H](NC(=O)[C@H](Cc1ccc(O)cc1)NC(=O)[C@@H](NC(=O)[C@H](CO)NC(=O)[C@H](CO)NC(=O)[C@H](CCSC)NC(=O)[C@@H]1CCCN1C(=O)[C@H](CC(=O)O)NC(C)=O)[C@@H](C)O)C(=O)N[C@@H](CCC(=O)O)C(=O)N[C@@H](CCC(=O)O)C(=O)N[C@@H](CC(C)C)C(=O)NCC(=O)N[C@@H](CCCCN)C(=O)N[C@@H](CCCNC(=N)N)C(=O)N[C@@H](CCC(=O)O)C(=O)N[C@H](C(=O)N[C@H](C(=O)N[C@H](C(=O)N1CCC[C@H]1C(=O)N1CCC[C@H]1C(=O)N[C@@H](CCCCN)C(=O)N[C@@H](Cc1ccc(O)cc1)C(=O)N[C@@H](CCCNC(=N)N)C(=O)N[C@@H](CCC(=O)O)C(=O)N[C@@H](CC(C)C)C(=O)N[C@@H](CC(C)C)C(=O)N[C@@H](C)C(N)=O)[C@@H](C)CC)[C@@H](C)O)C(C)C (Ac-DPMSSTYIEELGKREVTIPPKYRELLA-NH2)
